Source: patent publication US4871756A, “Leukotriene antagonists” (Merck Frosst Canada, Inc., priority 1987, dated 1989)

Test system: Leukotriene D4 (ileum contraction induced by LTD4)
Test: Guinea Pig Ileum Assay for Evaluation of Antagonists of Leukotriene D4 (Inhibition of Ileum Contraction Induced by LTD4)
Type: cell-based, guinea pig (male Hartley strain)
Conditions: Cavia porcellus, LTD4 0.3 ng/ml, 30 second pretreatment; for inhibition at 10 µg/mL: 10 μg/ml
Experimental: The terminal ileum from male Hartley strain guinea pigs (300-500 g) was removed and suspended under 1 g resting tension in Tyrode's solution containing 1.0×10^-6 M atropine sulfate and 1.6×10^-6 M timolol (beta blocker). After a 15-30 minute stabilization period, a standard dose of leukotriene D4 (0.3 ng/ml--final bath concentration)was added repeatedly until consistent and reproducible contractile responses were obtained. Isometric contractions to leukotriene D4 were recorded for 60 seconds and then the tissue was washed and allowed to recove to baseline (2 minutes) before the next dose of leukotriene D4 was added. For testing antagonist compounds, a 30 second pretreatment period was used and the percent inhibition of the control contraction to leukotriene D4 was recorded. A similar procedure was employed for testing active compounds against contractions to a standard dose of histamine (50 ng/ml--final bath concentration).

| Compound | inhibition at 1 µg/mL (1 μg/ml) [%] | inhibition at 10 µg/mL [%] |
| --- | --- | --- |
| CCCc1c(OCC2(O)CCCCC2Sc2ccc(C(=O)CCC(=O)O)cc2)ccc(C(C)=O)c1O [L-649,106] | 23 | 80 |
| CCCc1c(OCC2(Sc3ccc(C(=O)CCC(=O)O)cc3)CCCCC2O)ccc(C(C)=O)c1O [L-649,107] | – | 12 |
